Values quoted from earlier work in patent US8604163B2, “EEF2K assays for identifying compounds that inhibit EEF2K activity” (University of Medicine and Dentistry of New Jersey, priority 2009, dated 2013).

System: glioma cell lines
Conditions: by inhibiting eEF2-K; Parmer et al. 1997

CC(=O)c1c(O)c(C)c(O)c(Cc2c(O)c3c(c(C(=O)/C=C/c4ccccc4)c2O)OC(C)(C)C=C3)c1O [rottlerin]
growth of glioma cell lines: inhibit growth of glioma cell lines
